Read-outs that look alike come from different tables or passages of the source.
What was measured:
KRas G12C = KRas G12C (Homo sapiens, UniProt P01116, C118S/C51S/C80L/G12C); assay: KRas G12C Modification Assay (LCMS detection of covalent adduct); type: binding; settings: normalized percent of control; tested at 5 μM concentration for 3 hours
How it was run: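 Covalent modification was read by reverse-phase LC/MS of intact protein after compound exposure, each reaction stopped at its time point with 25 mM acetic acid. Unmodified-protein signal, taken as percent of total, was normalised to untreated protein and reported as POC.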

[1] = system: NCI-H358 cells (express KRas G12C), Phospho-ERK; assay: Cellular inhibition of KRas G12C: Phospho-ERK in NCI-H358 cells; type: cell-based; settings: Homo sapiens, pERK(Thr202/Tyr204) normalized with GAPDH, NCI-H358 cells, 3 hours, read-out: IC50
How it was run: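 IC50 derived by 4-parameter fit of GAPDH-normalized pERK(Thr202/Tyr204) signal, as percent of DMSO control. Signal came from in-cell immunodetection with infrared secondaries after 3 h compound exposure of KRas G12C NCI-H358 cells at 0.5% DMSO.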

SMILES	POC (KRas G12C)	IC50 [1] [nM]	IC50 ([1]; NCI-H358, 3 h) [nM]
C=CC(=O)N1CCN(c2nc(O[C@H](C)CN(C)C)nc3c2CCN(c2cc(O)cc(OC(F)(F)F)c2)C3)CC1 [Example 91, (R)-1-(4-(2-((1-(dimethylamino)propan-2-yl)oxy)-7-(3-hydroxy-5-(trifluoromethoxy)phenyl)-5,6,7,8-tetrahydropyrido[3,4-d]pyrimidin-4-yl)piperazin-1-yl)prop-2-en-1-one]	A (“A”≤25% POC)	> 1000	–
C=CC(=O)N1CCN(c2nc(OCCCN3C[C@@H]4C[C@H]3CO4)nc3c2CCN(c2cccc4cccc(Cl)c24)C3)C[C@@H]1CC#N [Example 365, 2-[(2S)-4-[7-(8-chloro-1-naphthyl)-2-[3-[(1S,4S)-2-oxa-5-azabicyclo[2.2.1]heptan-5-yl]propoxy]-6,8-dihydro-5H-pyrido[3,4-d]pyrimidin-4-yl]-1-prop-2-enoyl-piperazin-2-yl]acetonitrile]	C (“C”>50% POC)	–	0.1 to 1000
C=CC(=O)N1CCN(c2ncnc3c2CC(=O)N(c2cc(O)cc4ccccc24)C3)CC1 [Example 113, 4-(4-acryloylpiperazin-1-yl)-7-(3-hydroxynaphthalen-1-yl)-7,8-dihydropyrido[3,4-d]pyrimidin-6(5H)-one]	C (“C”>50% POC)	> 1000	–
C=CC(=O)N1CCN(c2nc(O[C@H](C)CN(C)C)nc3c2CCN(c2cc(O)ccc2C(F)(F)F)C3)CC1 [Example 79, (R)-1-(4-(2-((1-(dimethylamino)propan-2-yl)oxy)-7-(5-hydroxy-2-(trifluoromethyl)phenyl)-5,6,7,8-tetrahydropyrido[3,4-d]pyrimidin-4-yl)piperazin-1-yl)prop-2-en-1-one]	A (“A”≤25% POC)	> 1000	–
C=CC(=O)N1CCN(c2nc(OC[C@@H]3CCN(C)C3)nc3c2CCN(c2cc(O)cc4ccccc24)C3)CC1CC#N (stereo partly drawn) [Example 179, 2-[4-[7-(3-hydroxy-1-naphthyl)-2-[[(3R)-1-methylpyrrolidin-3-yl]methoxy]-6,8-dihydro-5H-pyrido[3,4-d]pyrimidin-4-yl]-1-prop-2-enoyl-piperazin-2-yl]acetonitrile]	C (“C”>50% POC)	–	0.1 to 1000
CCN1CCC[C@H]1COc1nc2c(c(N3CCN(C(=O)/C=C/CN(C)C)[C@@H](CC#N)C3)n1)CCN(c1cccc3ccccc13)C2 [Example 400, 2-((S)-1-((E)-4-(dimethylamino)but-2-enoyl)-4-(2-(((S)-1-ethylpyrrolidin-2-yl)methoxy)-7-(naphthalen-1-yl)-5,6,7,8-tetrahydropyrido[3,4-d]pyrimidin-4-yl)piperazin-2-yl)acetonitrile]	C (“C”>50% POC)	–	0.1 to 1000
C=CC(=O)N1CCN(c2nc(OCCCN3CCOCC3)nc3c2CCN(c2cc(O)cc(C)c2C)C3)CC1 [Example 213, 1-(4-(7-(5-hydroxy-2,3-dimethylphenyl)-2-(3-morpholinopropoxy)-5,6,7,8-tetrahydropyrido[3,4-d]pyrimidin-4-yl)piperazin-1-yl)prop-2-en-1-one]	C (“C”>50% POC)	> 1000	–
C=CC(=O)N1CCN(c2nc(OCC3CCN(C)C3)nc3c2CCN(c2c(C)ccc4[nH]ncc24)C3)CC1 (centres unmarked) [Example 161, 1-[4-[7-(5-methyl-1H-indazol-4-yl)-2-[(1-methylpyrrolidin-3-yl)methoxy]-6,8-dihydro-5H-pyrido[3,4-d]pyrimidin-4-yl]piperazin-1-yl]prop-2-en-1-one]	C (“C”>50% POC)	> 1000	–
C=CC(=O)N1CCN(c2nc(OCCN3CCCCC3)nc3c2CCN(c2cccc4ccccc24)C3)C[C@@H]1CC#N [Example 408, (S)-2-(1-acryloyl-4-(7-(naphthalen-1-yl)-2-(2-(piperidin-1-yl)ethoxy)-5,6,7,8-tetrahydropyrido[3,4-d]pyrimidin-4-yl)piperazin-2-yl)acetonitrile]	C (“C”>50% POC)	–	0.1 to 1000
CN1CCC[C@H]1COc1nc2c(c(N3CCN(C(=O)/C=C/CN4CCCC4)[C@@H](CC#N)C3)n1)CCN(c1cccc(Cl)c1C(F)(F)F)C2 [Example 347, 2-[(2S)-4-[7-[3-chloro-2-(trifluoromethyl)phenyl]-2-[[(2S)-1-methylpyrrolidin-2-yl]methoxy]-6,8-dihydro-5H-pyrido[3,4-d]pyrimidin-4-yl]-1-[(E)-4-pyrrolidin-1-ylbut-2-enoyl]piperazin-2-yl]acetonitrile]	C (“C”>50% POC)	–	0.1 to 1000
C=CC(=O)N1CCN(c2nc(O[C@H](C)CN(C)C)nc3c2CCN(c2cc(O)c(F)c4ccccc24)C3)CC1 [Example 124, (R)-1-(4-(2-((1-(dimethylamino)propan-2-yl)oxy)-7-(4-fluoro-3-hydroxynaphthalen-1-yl)-5,6,7,8-tetrahydropyrido[3,4-d]pyrimidin-4-yl)piperazin-1-yl)prop-2-en-1-one]	C (“C”>50% POC)	> 1000	–

Continued, in another order:

POC (KRas G12C)	SMILES	IC50 [1] [nM]	IC50 ([1]; NCI-H358, 3 h) [nM]
C (“C”>50% POC)	C=CC(=O)N1CCN(c2nc(OC[C@@H]3CCCN3C)nc3c2CCN(c2ccccc2C(F)(F)F)C3)CC1 [Example 159, (S)-1-(4-(2-((1-methylpyrrolidin-2-yl)methoxy)-7-(2-(trifluoromethyl)phenyl)-5,6,7,8-tetrahydropyrido[3,4-d]pyrimidin-4-yl)piperazin-1-yl)prop-2-en-1-one]	–	> 1000
C (“C”>50% POC)	C=CC(=O)N1CCN(c2nc(OC[C@@H]3CCCN3C)nc3c2CCN(c2cccc(F)c2C)C3)C[C@@H]1CC#N [Example 388, 2-((S)-1-acryloyl-4-(7-(3-fluoro-2-methylphenyl)-2-(((S)-1-methylpyrrolidin-2-yl)methoxy)-5,6,7,8-tetrahydropyrido[3,4-d]pyrimidin-4-yl)piperazin-2-yl)acetonitrile]	–	0.1 to 1000
C (“C”>50% POC)	C=CC(=O)N1CCN(c2nc(OC[C@@H]3CCCN3C)nc3c2CCN(c2cccc4cc(F)ccc24)C3)CC1CC#N (stereo partly drawn) [Example 259, 2-[4-[7-(6-fluoro-1-naphthyl)-2-[[(2S)-1-methylpyrrolidin-2-yl]methoxy]-6,8-dihydro-5H-pyrido[3,4-d]pyrimidin-4-yl]-1-prop-2-enoyl-piperazin-2 yl]acetonitrile]	–	0.1 to 1000
C (“C”>50% POC)	C=CC(=O)N1CCN(c2nc(OC[C@@H]3CCCCN3C)nc3c2CCN(c2cccc4ccccc24)C3)C[C@@H]1CC#N [Example 377, 2-((S)-1-acryloyl-4-(2-(((S)-1-methylpiperidin-2-yl)methoxy)-7-(naphthalen-1-yl)-5,6,7,8-tetrahydropyrido[3,4-d]pyrimidin-4-yl)piperazin-2-yl)acetonitrile]	–	0.1 to 1000
C (“C”>50% POC)	C=CC(=O)N1CCN(c2nc(OC[C@@H]3CCCN3C)nc3c2CCN(c2ccccc2OC(F)(F)F)C3)CC1CC#N (stereo partly drawn) [Example 211, 2-(1-acryloyl-4-(2-(((S)-1-methylpyrrolidin-2-yl)methoxy)-7-(2-(trifluoromethoxy)phenyl)-5,6,7,8-tetrahydropyrido[3,4-d]pyrimidin-4-yl)piperazin-2-yl)acetonitrile]	–	0.1 to 1000
